Experimental data: US20260028352A1, “MACROCYCLIC IMIDAZO [1,2-B] PYRIDAZINE DERIVATIVE, PREPARATION METHOD THEREFOR, AND USE THEREOF” (SUZHOU LANGRUI BIOPHARMACEUTICAL CO., LTD., priority 2022, published 2026)
Like-named read-outs stand apart in the source and are kept apart here. Blank lines part the entries; values can stand above or below the compound they belong to.

How the values were obtained:
[1] = test system: Ba/F3-TPM3-NTRK1-WT cells; assay: Growth inhibition of Ba/F3-TPM3-NTRK1-WT cells (Cell Titer-Glo); assay type: cell-based; details: 72 hours, CTG; read-out: inhibitory activity IC50 Ba/F3-TPM3-NTRK1-WT
Procedure, shortened: (§1)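 Ba/F3 cells were exposed for 72 hours to serially DMSO-diluted compound at a top final concentration of 10 μM. Viability was read by Cell Titer-Glo luminescence after the plate equilibrated 30 min at room temperature and was then shaken 1 hour in the dark at room temperature.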

[2] = biological target: TRKA^WT kinase (Homo sapiens (Human), UniProt P04629); assay: Inhibitory activity against TRKA WT kinase (Caliper mobility shift); assay type: biochemical; details: in vitro kinase assay
Procedure, shortened: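 Kinase preincubated 10 min at room temperature with compound (10-point 3-fold series from 1000 nM), then reaction started with ATP and Kinase Substrate 22. Substrate conversion read by Caliper mobility shift; IC50 from variable-slope log(inhibitor)–response fit of % inhibition versus no-enzyme and no-compound controls.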

[3] = test system: Ba/F3-TPM3-NTRK1-G667C cells; assay: Growth inhibition of Ba/F3-TPM3-NTRK1-G667C cells (Cell Titer-Glo); assay type: cell-based; details: for IC50: 72 hours, CTG, read-out: inhibitory activity IC50 Ba/F3-TPM3-NTRK1-G667C
Procedure, shortened: as §1

[4] = ether bond
[5] = biological target: TRKA^F589L kinase (Homo sapiens (Human), UniProt P04629, F589L); assay: Inhibitory activity against TRKA(F589L) kinase (Caliper mobility shift); assay type: biochemical; details: in vitro kinase assay
Procedure: Kinase Assay Process: 1× Kinase buffer was prepared. […] The compounds were serially diluted into 10 concentrations ([…], 0.15, and 0.05 nM) using a Precision 3-fold dilution method. By using the Echo550 liquid handler, 250 nL of the 100-fold final concentration compound was transferred to an OptiPlate-384F plate. a 2.5× final concentration kinase solution was prepared using 1× Kinase buffer. 10 μL of the 2.5× final concentration kinase solution was added to the compound wells and the positive control wells, and 10 μL of 1× Kinase buffer was added to the negative control wells. The plate was centrifuged at 1000 rpm for 30 seconds, vortexed for mixing, and then incubated at room temperature for 10 minutes. A mixture of 5/3× final concentration of ATP and Kinase Substrate 22 was prepared using 1× Kinase buffer. 15 μL of the mixture of the 5/3× final concentration ATP and the substrate was added to initiate the reaction, the 384-well plate was centrifuged at 1000 rpm for 30 seconds, vortexed for mixing, and incubated at room temperature for the required time. 30 μL of the termination solution was added to stop the kinase reaction, the plate was centrifuged at 1000 rpm for 30 seconds, and vortexed for mixing. The conversion rate was measured using the Caliper EZ Reader.
Data Analysis: the inhibition rate was calculated as follows:
% Inhibition=(Conversion %_max−conversion %_sample)÷(Conversion %_max−conversion %_min)×100
Conversion %_sample is the conversion rate reading for the sample; Conversion %_min is the average value of the negative control wells, representing the conversion rate for wells without enzyme activity: Conversion %_max is the average value of the positive control wells, representing the conversion rate for wells without compound inhibition. A dose-response curve was fitted using the log concentration of the compound as the X-axis and the percentage inhibition as the Y-axis. The log(inhibitor) vs. response-variable slope of the GraphPad Prism 5 software was used to fit the dose-response curve, and the IC50 value for each compound was obtained. The calculation formula is:
Y=Bottom+(Top−Bottom)/(1+10^((Log IC50−X)*HillSlope)).
wherein X represents the concentration of the compound to be tested; Y represents the inhibition rate at the concentration X: Top refers to the maximum response: Bottom refers to the baseline response; HillSlope refers to the slope of the curve (i.e., the gradient).

[6] = test system: Ba/F3-TPM3-NTRK1-G595R cells; assay: Growth inhibition of Ba/F3-TPM3-NTRK1-G595R cells (Cell Titer-Glo); assay type: cell-based; details: 72 hours, CTG; read-out: inhibitory activity IC50 Ba/F3-TPM3-NTRK1-G595R
Procedure, shortened: as §1

[7] = test system: Ba/F3-TPM3-NTRK1-WT subcutaneous xenograft; assay: Efficacy in Ba/F3-TPM3-NTRK1-WT subcutaneous xenograft tumor model; assay type: in vivo, NOD-SCID mice
Procedure: Cell culture: Ba/F3-TPM3-NTRK1-WT cells were cultured in RPMI 1640 medium containing 10% FBS. Ba/F3-TPM3-NTRK1-WT cells in logarithmic growth phase were collected, the required total number of cells was calculated, and the cells were resuspended in a suitable volume of PBS mixture (PBS:Matrigel=1:1 (v/v)) with a cell suspension concentration of 5×106/0.1 mL for subcutaneous inoculation on the right side of NOD-SCID mice.
Method: On Day 0, all animals were subcutaneously inoculated with 0.1 mL (5×10^6 Ba/F3-TPM3-NTRK1-WT cells) of cell suspension (PBS:Matrigel=1:1, VN) on the right back. After the tumor growed to an average volume of 178.3 mm3, the mice were grouped and administrated. The average tumor volume of the enrolled animals is 178.3 mm^3. The mice were divided into two groups. Group-1 (Vehicle) and Group-2 (10 mg/kg, I-52). Each group consisted of 6 animals. All groups were administered orally by gavage with a frequency of BID, for a total of 29 days.
(§2) Tumor volume inhibition rate TGITV (%): TGI %=(1−ΔT/ΔC)×100%, wherein ΔC is the tumor volume Ct−C0 of the control group, C0 is the average tumor volume of the control group at the time of grouping, Ct is the average tumor volume of the control group after treatment, ΔT is the tumor volume Tt−T0 of the treatment group, T0 is the average tumor volume of the […] after treatment.
Pharmacological activity was evaluated based on tumor suppression rate (TGITV), and tolerance was evaluated based on changes in animal weight and mortality.

[8] = test system: Ba/F3-TPM3-NTRK1-G667C subcutaneous xenograft; assay: Efficacy in Ba/F3-TPM3-NTRK1-G667C subcutaneous xenograft tumor model; assay type: in vivo, NOD-SCID mice; details: 10 mg/kg oral BID
Procedure: Cell Culture: Ba/F3-TPM3-NTRK1-G667C cells were cultured in RPMI 1640 medium containing 10% FBS. Log-phase cells were collected, and the total number of cells required was calculated. Cells were resuspended in an appropriate volume of PBS mixture solution (PBS:Matrigel=1:1, v/v) at a concentration of 5×10^6 cells/0.1 mL for subcutaneous inoculation into the right flank of NOD-SCID mice.
Method: at Day 0, all animals were subcutaneously inoculated with 0.1 mL (5×10^6 cells) of Ba/F3-TPM3-NTRK1-G667C cell suspension (PBS:Matrigel=1:1, v/v) on the right flank. When the tumors reached an average volume of 197.2 mm^3, dosing and grouping began. […] The animals were divided into two groups: Group 1: Vehicle control; Group 2: 10 mg/kg of compound 1-52. Each group contained six mice. All groups were administered orally via gavage twice daily (BID) for 29 days.
as §2, with “Tumor Volume Inhibition Rate TGITV(%):” for “Tumor volume inhibition rate TGITV (%):”, “TGI %=(1−ΔT/ΔC)×100%; Where:” for “TGI %=(1−ΔT/ΔC)×100%, wherein”, “group, To” for “group, T0”
Pharmacological activity was evacuated based on tumor suppression rate (TGITV), and tolerance was assessed based on changes in animal weight and mortality.

Chain of TRKA^F589L kinase (P04629 33-796 F589L): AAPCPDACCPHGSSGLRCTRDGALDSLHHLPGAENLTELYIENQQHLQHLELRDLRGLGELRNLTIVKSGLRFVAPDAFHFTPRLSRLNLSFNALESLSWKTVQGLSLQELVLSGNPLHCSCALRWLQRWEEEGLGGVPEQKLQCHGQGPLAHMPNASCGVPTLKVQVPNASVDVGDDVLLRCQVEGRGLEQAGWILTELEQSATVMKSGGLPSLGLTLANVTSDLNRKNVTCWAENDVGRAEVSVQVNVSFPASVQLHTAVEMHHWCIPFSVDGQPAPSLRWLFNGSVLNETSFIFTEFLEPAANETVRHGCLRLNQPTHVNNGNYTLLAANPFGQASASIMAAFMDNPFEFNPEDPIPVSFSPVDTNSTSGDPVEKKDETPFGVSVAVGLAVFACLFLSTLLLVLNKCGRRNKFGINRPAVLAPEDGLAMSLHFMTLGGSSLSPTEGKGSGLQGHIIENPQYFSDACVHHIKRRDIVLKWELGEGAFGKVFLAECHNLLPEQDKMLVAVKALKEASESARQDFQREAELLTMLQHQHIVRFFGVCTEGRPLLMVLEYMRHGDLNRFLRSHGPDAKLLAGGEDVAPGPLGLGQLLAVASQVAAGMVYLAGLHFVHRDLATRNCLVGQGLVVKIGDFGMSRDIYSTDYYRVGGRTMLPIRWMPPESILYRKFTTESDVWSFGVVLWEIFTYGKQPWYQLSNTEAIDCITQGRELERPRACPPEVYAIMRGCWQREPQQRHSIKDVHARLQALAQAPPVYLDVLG
Chain of TRKA^WT kinase (P04629 33-796): as the sequence (P04629 33-796 F589L) above, with L557F counted along it

Compound: CC1Nc2ccc3ncc(n3n2)-c2cc(ccn2)COc2ccccc21 (centres unmarked) [Example I-3, (E)-6-methyl-4-oxa-7-aza-1(3,6)-imidazo[1,2-b]pyridazine-2(2,4)-pyridine-5(1,2)-benzenacycloheptaphane]
IC50 [1]: 17 nM
IC50 [2]: 5.9 nM
IC50 [3]: 526 nM
ring closure, isolated yield ([4]; from CC(Nc1ccc2ncc(-c3cc(CO)ccn3)n2n1)c1ccccc1O, 13-membered ring, SOCl2, K2CO3, DCM/DMF, 11.0 mM, 90.0 °C, 2.0 h, 2 steps): 39.2%
IC50 [5]: 7.1 nM
IC50 [6]: 527 nM

Compound: CC1Nc2ccc3ncc(n3n2)-c2cc(ccn2)OCc2ncc(F)cc21 (centres unmarked) [Example I-12, (E)-5^5-fluoro-6-methyl-3-oxa-7-aza-1(3,6)-imidazo[1,2-b]pyridazina-2(2,4), 5(2,3)-dipyridinacycloheptaphane]
IC50 [3]: < 100 nM
ring closure, isolated yield ([4]; from CC(Nc1ccc2ncc(-c3cc(O)ccn3)n2n1)c1cc(F)cnc1CO, 13-membered ring, SOCl2, then K2CO3, DCM/DMF, then DMF (DCM evaporated), 15.7 mM, 90.0 °C, 2.0 h, 2 steps): 22.6%

Compound: Fc1cnc2c(c1)[C@H]1C[C@H](F)CN1c1ccc3ncc(n3n1)-c1cc(ccn1)CO2 [Example I-52, (14bR,16S,E)-13,16-difluoro-14b,15,16,17-tetrahydro-9H-1,19-etheno-4,8-(metheno)imidazo[1,5-h]pyrido[2,3-b]pyrrolo[2,1-d][1]oxa[5,7,8,11]tetraazacyclopentadecine]
IC50 [1]: 0.02 nM
Average Tumor Volume ([7]; Day 4, 10 mg/kg oral BID): 182.5 mm^3
Average Tumor Volume ([7]; Day 6, 10 mg/kg oral BID): 192.7 mm^3
Average Tumor Volume ([7]; Day 8, 10 mg/kg oral BID): 176.5 mm^3
Average Tumor Volume ([7]; Day 10, 10 mg/kg oral BID): 146.3 mm^3
Average Tumor Volume ([7]; Day 12, 10 mg/kg oral BID): 113.1 mm^3
Average Tumor Volume ([7]; Day 14, 10 mg/kg oral BID): 74.4 mm^3
Average Tumor Volume ([7]; Day 15, 10 mg/kg oral BID): 67.9 mm^3
Average Tumor Volume ([7]; Day 17, 10 mg/kg oral BID): 60.1 mm^3
Average Tumor Volume ([7]; Day 19, 10 mg/kg oral BID): 32.8 mm^3
Average Tumor Volume ([7]; Day 21, 10 mg/kg oral BID): 0.0 mm^3
Average Tumor Volume ([7]; Day 23, 10 mg/kg oral BID): 0.0 mm^3
Average Tumor Volume ([7]; Day 25, 10 mg/kg oral BID): 0.0 mm^3
Average Tumor Volume ([7]; Day 27, 10 mg/kg oral BID): 0.0 mm^3
TGITV ([7]; Day 29, 10 mg/kg oral BID): 112%
Tumor Regression Rate ([7]; Day 29, 10 mg/kg oral BID): 100%
Tumor Volume (average) ([7]; Day 29, 10 mg/kg oral BID): 0.0 mm^3
Average Tumor Volume ([7]; Day 29, 10 mg/kg oral BID (Table 7)): 0.0 mm^3
IC50 [3]: 0.88 nM
Average Body Weight ([8]; Day 2): 19.1 g
Average Body Weight ([8]; Day 7): 20.9 g
Average Body Weight ([8]; Day 9): 21.0 g
Average Body Weight ([8]; Day 11): 21.8 g
Average Body Weight ([8]; Day 13): 22.0 g
Average Body Weight ([8]; Day 15): 22.8 g
Average Body Weight ([8]; Day 17): 23.0 g
Average Body Weight ([8]; Day 19): 23.7 g
Average Body Weight ([8]; Day 21): 23.3 g
Average Body Weight ([8]; Day 23): 24.3 g
Average Body Weight ([8]; Day 25): 24.7 g
Average Body Weight ([8]; Day 27): 25.3 g
Average Body Weight ([8]; Day 29): 24.6 g
Relative Tumor Volume (average) ([8]; Day 29): 308.6%
TGITV ([8]; Day 29): 84%
Tumor Volume (average) ([8]; Day 29): 636.5 mm^3
IC50 [6]: 0.3 nM

Compound: (E)-4-methyl-6-oxa-3-aza-2(3,6)-imidazo [1,2-b]pyridazina-1(2,4)-pyridina-5(1,2)-benzenacyclooctaphane
ring closure, isolated yield ([4]; 14-membered ring, PPh3/DIAD, THF, 15.8 mM, 60.0 °C): 18.4%

Further lines, with some results ahead:

IC50 [1]: 3.66 nM
IC50 [2]: 2.57 nM
IC50 [3]: 91.2 nM
IC50 [5]: 5.4 nM
IC50 [6]: 72.2 nM
Compound: CC1Nc2ccc3ncc(n3n2)-c2cc(ccn2)COc2ccc(F)cc21 (centres unmarked) [Example I-1, (E)-5^4-fluoro-6-methyl-4-oxa-7-aza-1(3,6)-imidazo[1,2-b]pyridazina-2(2,4)-pyridina-5(1,2)-benzenacycloheptaphane]
ring closure, isolated yield ([4]; from CC(Nc1ccc2ncc(-c3cc(CO)ccn3)n2n1)c1cc(F)ccc1O, 13-membered ring, SOCl2, K2CO3, DCM/DMF, 15.2 mM, 90.0 °C, 2.0 h, 2 steps): 11.3%

IC50 [1]: 24.8 nM
IC50 [2]: 2.59 nM
IC50 [3]: 32.5 nM
IC50 [5]: 6.2 nM
IC50 [6]: 245 nM
Compound: CC1Nc2ccc3ncc(n3n2)-c2cc(ccn2)COc2c(F)cc(F)cc21 (centres unmarked) [Example I-2, (E)-5^4,5^6-difluoro-6-methyl-4-oxa-7-aza-1(3,6)-imidazo[1,2-b]pyridazine-2(2,4)-pyridina-5(1,2)-benzenacycloheptaphane]
inhibitory ability compared with TPX-0005 ([3]; comparison in words): stronger than that of compound TPX-0005
ring closure, isolated yield ([4]; from CC(Nc1ccc2ncc(-c3cc(CO)ccn3)n2n1)c1cc(F)cc(F)c1O, 13-membered ring, SOCl2, K2CO3, DCM/DMF, 15.2 mM, 90.0 °C, 1.5 h, 2 steps): 11.2%

IC50 [2]: < 3 nM
IC50 [3]: < 100 nM
IC50 [5]: 5.8 nM
Compound: CC1Nc2ccc3ncc(n3n2)-c2cc(ccn2)COc2ncccc21 (centres unmarked) [Example I-4, (E)-6-methyl-4-oxa-7-aza-1(3,6)-imidazo[1,2-b]pyridazina-2(2,4), 5(2,3)-dipyridinacycloheptaphane]
ring closure, isolated yield ([4]; from CC(Nc1ccc2ncc(-c3cc(CO)ccn3)n2n1)c1cccnc1O, 13-membered ring, SOCl2, K2CO3, DCM/DMF, 22.0 mM, 90.0 °C, 2.0 h, 2 steps): 30.2%
